From the supplement of paper PMC11061612

Assays:
Assay in all cases: Bliss excess, mean over the matrix (fraction); higher = more synergy
[1] = system: COR-L23 (Non-Small Cell Lung Carcinoma)
Procedure, shortened: (§1)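 Bliss excess equals the observed combination effect minus the expected value EA + EB − EA·EB, where EA and EB are the effects of each agent alone. Combination Emax is the second-highest inhibition within the matrix. Inhibition was scaled from CellTiter-Glo 2.0 luminescence, with 0 set by vehicle wells and 1 by blank wells, after 72 hours of two-drug dosing of cells plated in 1536-well plates.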

[2] = system: TGBC24TKB (Biliary Tract Carcinoma)
Procedure, shortened: as §1

[3] = system: LU-99A (Non-Small Cell Lung Carcinoma)
Procedure, shortened: as §1

[4] = system: KARPAS-620 (Plasma Cell Myeloma)
Procedure, shortened: as §1

[5] = system: HT-29 (Colorectal Carcinoma)
Procedure, shortened: as §1

[6] = system: CFPAC-1 (Pancreatic Carcinoma)
Procedure, shortened: as §1

[7] = system: MDA-MB-231 (Breast Carcinoma)
Procedure, shortened: as §1

[8] = system: KATOIII (Gastric Carcinoma)
Procedure, shortened: as §1

[9] = system: SNU-C5 (Colorectal Carcinoma)
Procedure, shortened: as §1

[10] = system: J82 (Bladder Carcinoma)
Procedure, shortened: as §1

[11] = system: CTV-1 (T-Lymphoblastic Leukemia)
Procedure, shortened: as §1

[12] = system: SW756 (Cervical Carcinoma)
Procedure, shortened: as §1

[13] = system: COR-L95 (Small Cell Lung Carcinoma)
Procedure, shortened: as §1

[14] = system: CAL-78 (Chondrosarcoma)
Procedure, shortened: as §1

[15] = system: SW1990 (Pancreatic Carcinoma)
Procedure, shortened: as §1

[16] = system: HCC2157 (Breast Carcinoma)
Procedure, shortened: as §1

[17] = system: IGR-1 (Melanoma)
Procedure, shortened: as §1

[18] = system: NCI-H1793 (Lung Adenocarcinoma)
Procedure, shortened: as §1

[19] = system: SW1088 (Low Grade Glioma)
Procedure, shortened: as §1

[20] = system: U-266 (Plasma Cell Myeloma)
Procedure, shortened: as §1

| Structure (SMILES) | Bliss excess [1] | Bliss excess [2] | Bliss excess [3] | Bliss excess [4] | Bliss excess [5] | Bliss excess [6] | Bliss excess [7] | Bliss excess [8] | Bliss excess [9] | Bliss excess [10] | Bliss excess [11] | Bliss excess [12] | Bliss excess [13] | Bliss excess [14] | Bliss excess [15] | Bliss excess [16] | Bliss excess [17] | Bliss excess [18] | Bliss excess [19] | Bliss excess [20] |
| --- | --- | --- | --- | --- | --- | --- | --- | --- | --- | --- | --- | --- | --- | --- | --- | --- | --- | --- | --- | --- |
| CCN(CCO)CCCOc1ccc2c(Nc3cc(CC(=O)Nc4cccc(F)c4)[nH]n3)ncnc2c1 [AZD2811] + C=CCn1c(=O)c2cnc(Nc3ccc(N4CCN(C)CC4)cc3)nc2n1-c1cccc(C(C)(C)O)n1 [AZD1775] (first compound max 1 µM, partner max 1 µM) | -0.0043 | -0.0717 | -0.0354 | -0.0619 | -0.0446 | -0.0695 | 0.009 | -0.0459 | 0.0188 | 0.0001 | 0.0014 | -0.01 | -0.0225 | 0.0636 | -0.0403 | -0.0071 | -0.0438 | -0.0064 | 0.0034 | 0.0031 |
| CCN(CCO)CCCOc1ccc2c(Nc3cc(CC(=O)Nc4cccc(F)c4)[nH]n3)ncnc2c1 [AZD2811] + C[C@@H]1COCCN1C2=NC(=NC(=C2)C3(CC3)[S@](=N)(=O)C)C4=C5C=CNC5=NC=C4 [AZD6738] (first compound max 1 µM, 7x7, partner max 10 µM) | -0.0192 | -0.0407 | -0.0732 | -0.0121 | -0.0459 | -0.0932 | -0.103 | -0.0477 | -0.0418 | -0.0259 | 0.0009 | -0.0095 | -0.0658 | -0.0799 | -0.0555 | -0.0704 | 0.0315 | -0.0341 | -0.103 | -0.0532 |
| CCN(CCO)CCCOc1ccc2c(Nc3cc(CC(=O)Nc4cccc(F)c4)[nH]n3)ncnc2c1 [AZD2811] + O=C(c1cc(Cc2n[nH]c(=O)c3ccccc23)ccc1F)N1CCN(C(=O)C2CC2)CC1 [Olaparib] (first compound max 1 µM, 7x7, partner max 10 µM) | -0.016 | -0.0102 | -0.0181 | 0.0273 | 0.0007 | 0.0077 | -0.0175 | -0.0332 | -0.0041 | -0.0207 | 0.0712 | -0.0232 | -0.0526 | 0.0006 | -0.0302 | -0.0105 | -0.0059 | -0.0264 | -0.0539 | -0.0139 |
| COc1nnc2ccc(N3CCC(c4ccc(OCCN5CCN(C)C(=O)[C@H]5C)cc4)CC3)nn12 [AZD5153] + CN(CC[C@H](CSC1=CC=CC=C1)NC2=C(C=C(C=C2)S(=O)(=O)NC(=O)C3=CC=C(C=C3)N4CCC(CC4)[C@H](C5=CC=CC=C5C6=CC=C(C=C6)Cl)O)S(=O)(=O)C(F)(F)F)CCO [AZD4320] (first compound max 1 µM, 7x7, partner max 1 µM) | -0.0014 | 0.0326 | 0.128 |  | -0.0111 | -0.0328 |  |  | 0.0451 | 0.0292 | 0.0057 | 0.0196 |  | 0.132 |  | 0.0047 | 0.197 | 0.039 |  |  |
| COc1cc2ncnc(Nc3ccc(F)c(Cl)c3)c2cc1OCCCN1CCOCC1 [Gefitinib] + CC(C)n1c(=O)n(C)c2cnc3cc(F)c(-c4ccc(OCCCN5CCCCC5)nc4)cc3c21 [AZD1390] (first compound max 10 µM, 7x7, partner max 0.3 µM) | -0.069 | -0.0379 |  | -0.0538 | -0.0512 | -0.0676 | -0.0659 | -0.0113 | -0.0751 | -0.12 | -0.0468 | -0.0551 | -0.0119 | -0.0625 | -0.0441 | -0.0136 | -0.006 | -0.0406 | -0.0688 | -0.0442 |
| CC(=O)c1c(C)c2cnc(Nc3ccc(N4CCNCC4)cn3)nc2n(C2CCCC2)c1=O [Palbociclib] + CN(CC[C@H](CSC1=CC=CC=C1)NC2=C(C=C(C=C2)S(=O)(=O)NC(=O)C3=CC=C(C=C3)N4CCC(CC4)[C@H](C5=CC=CC=C5C6=CC=C(C=C6)Cl)O)S(=O)(=O)C(F)(F)F)CCO [AZD4320] (first compound max 10 µM, 7x7, partner max 1 µM) | -0.0608 | -0.0727 | -0.119 |  | -0.0271 | 0.0056 |  |  | 0.025 | -0.0667 | -0.0365 | -0.0883 |  | -0.0873 |  | 0.0149 | -0.0387 | -0.0299 |  |  |
| CCc1c2c(nc3ccc(O)cc13)-c1cc3c(c(=O)n1C2)COC(=O)[C@]3(O)CC [SN-38] + O=C(c1cc(Cc2n[nH]c(=O)c3ccccc23)ccc1F)N1CCN(C(=O)C2CC2)CC1 [Olaparib] (first compound max 0.3 µM, 7x7, partner max 10 µM) | 0.0328 | 0.0421 | 0.0452 | -0.0221 | 0.0396 | 0.0607 | 0.107 | -0.0478 |  | 0.0532 | 0.0665 | -0.0109 | 0.0044 |  | 0.0001 |  | 0.0115 |  | 0.0683 | 0.0526 |
| C[C@@H](c1ccc2nccn2c1)n1nnc2ncc(-c3cnn(C)c3)nc21 [Savolitinib] + CN(CC[C@H](CSC1=CC=CC=C1)NC2=C(C=C(C=C2)S(=O)(=O)NC(=O)C3=CC=C(C=C3)N4CCC(CC4)[C@H](C5=CC=CC=C5C6=CC=C(C=C6)Cl)O)S(=O)(=O)C(F)(F)F)CCO [AZD4320] (first compound max 1 µM, 7x7, partner max 1 µM) | -0.0349 | 0.0233 | -0.0558 |  | -0.0245 | -0.0545 |  |  | -0.0448 | 0.0168 | -0.0887 | -0.0319 |  | -0.0906 |  | -0.0331 | -0.0913 | -0.0329 |  |  |
